Assay results reported in patent US9255100B2 (BAYER INTELLECTUAL PROPERTY GMBH, priority 2010, dated 2016).

Each molecule was assayed against T1, N-terminally GST-tagged human full length recombinant Mps-1 kinase (Homo sapiens, UniProt P33981) (assay: Mps-1 kinase assay (TR-FRET)). Settings: Mps1 IC50 [nM], 10 μM ATP, 1 μM peptide substrate, 60 min at 22° C.
T1 construct: N-terminally GST-tagged human full length recombinant Mps-1 kinase; purchased Invitrogen, Karslruhe, Germany PV4071
T1 sequence (P33981 1-857): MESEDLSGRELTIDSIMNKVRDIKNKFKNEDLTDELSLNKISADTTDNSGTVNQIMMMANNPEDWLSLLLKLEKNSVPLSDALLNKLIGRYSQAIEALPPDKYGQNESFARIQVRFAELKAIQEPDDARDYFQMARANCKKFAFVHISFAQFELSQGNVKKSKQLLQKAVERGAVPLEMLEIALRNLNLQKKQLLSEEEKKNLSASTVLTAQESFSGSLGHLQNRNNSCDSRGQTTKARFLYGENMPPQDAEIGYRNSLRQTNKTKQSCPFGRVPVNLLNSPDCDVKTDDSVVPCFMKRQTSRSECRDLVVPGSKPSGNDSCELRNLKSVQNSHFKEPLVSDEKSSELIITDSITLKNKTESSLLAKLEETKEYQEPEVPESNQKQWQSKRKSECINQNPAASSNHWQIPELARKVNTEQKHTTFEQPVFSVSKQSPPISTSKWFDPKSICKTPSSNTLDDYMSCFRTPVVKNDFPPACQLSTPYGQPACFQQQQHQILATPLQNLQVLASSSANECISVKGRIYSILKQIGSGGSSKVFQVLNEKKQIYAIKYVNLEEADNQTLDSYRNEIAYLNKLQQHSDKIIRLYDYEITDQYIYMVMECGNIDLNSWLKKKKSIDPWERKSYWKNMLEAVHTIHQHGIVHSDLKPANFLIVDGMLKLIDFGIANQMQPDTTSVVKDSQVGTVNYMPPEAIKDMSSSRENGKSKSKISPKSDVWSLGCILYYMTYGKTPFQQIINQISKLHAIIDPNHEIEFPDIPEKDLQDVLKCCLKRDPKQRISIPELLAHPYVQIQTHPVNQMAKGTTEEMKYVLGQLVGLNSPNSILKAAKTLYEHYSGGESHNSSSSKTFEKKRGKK
Format: biochemical
How it was run: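 Next, Eu-labelled anti-phospho(Ser/Thr) antibody and SA-XLent bind for 1 h at 22° C. Finally, energy transfer quantifies phosphorylated product.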
In the case of `CNC(=O)c1ccc(-c2cnc3c(NCCOC)cc(Oc4ccccc4C)nn23)cc1C` [Example 583, 4-{8-[(2-methoxyethyl)amino]-6-(2-methylphenoxy)imidazo[1,2-b]pyridazin-3-yl}-N,2-dimethylbenzamide], the IC50 is reported as 6.9 nM. For `CNC(=O)c1ccc(-c2cnc3c(NCCOC)cc(Oc4ccc(OC)cc4F)nn23)cc1C` [Example 584, 4-{6-(2-fluoro-4-methoxyphenoxy)-8-[(2-methoxyethyl)a-mino]imidazo[1,2-b]pyridazin-3-yl}-N,2-dimethylbenzamide], the IC50 was 2.3 nM. `CNC(=O)c1ccc(-c2cnc3c(NCCOC)cc(Oc4cc(F)ccc4C)nn23)cc1C` [Example 585, 4-{6-(5-fluoro-2-methylphenoxy)-8-[(2-methoxyethyl)a-mino]imidazo[1,2-b]pyridazin-3-yl}-N,2-dimethylbenzamide] showed an IC50 of 5.4 nM. `CNC(=O)c1ccc(-c2cnc3c(NCCOC)cc(Oc4ccc(OC)c(F)c4)nn23)cc1C` [Example 586, 4-{6-(3-fluoro-4-methoxyphenoxy)-8-[(2-methoxyethyl)a-mino]imidazo[1,2-b]pyridazin-3-yl]-N,2-dimethylbenzamide] was tested, and the IC50 was 1 nM. In the case of `CNC(=O)c1ccc(-c2cnc3c(NCCOC)cc(Oc4ccccc4)nn23)cc1C` [Example 587, 4-{8-[(2-methoxyethyl)amino]-6-phenoxyimidazo[1,2-b]pyridazin-3-yl}-N,2-dimethylbenzamide], the IC50 is reported as 3.2 nM. `CCNC(=O)c1ccc(-c2cnc3c(NCCN4CCOCC4)cc(Oc4ccc(F)c(F)c4)nn23)cc1C` [Example 588, 4-[6-(3,4-difluorophenoxy)-8-{[2-(morpholin-4-yl)ethyl]amino}imidazo[1,2-b]pyridazin-3-yl]-N-ethyl-2-methylbenzamide] showed an IC50 of 2.2 nM. `CCNC(=O)c1ccc(-c2cnc3c(NCCN4CCOCC4)cc(Oc4ccccc4C)nn23)cc1C` [Example 589, N-ethyl-2-methyl-4-[6-(2-methylphenoxy)-8-{[2-(morpholin-4-yl)ethyl]amino}imidazo[1,2-b]pyridazin-3-yl]benzamide] was tested, and the IC50 was 4.3 nM. Work on `CCNC(=O)c1ccc(-c2cnc3c(NCCN4CCOCC4)cc(Oc4ccc(OC)cc4F)nn23)cc1C` [Example 591, N-ethyl-4-[6-(2-fluoro-4-methoxyphenoxy)-8-{[2-(morpholin-4-yl)ethyl]amino}imidazo[1,2-b]pyridazin-3-yl]-2-methylbenzamide] yielded an IC50 of 2.5 nM. With `CCNC(=O)c1ccc(-c2cnc3c(NCCN4CCOCC4)cc(Oc4cc(F)ccc4C)nn23)cc1C` [Example 592, N-ethyl-4-[6-(5-fluoro-2-methylphenoxy)-8-{[2-(morpholin-4-yl)ethyl]amino}imidazo[1,2-b]pyridazin-3-yl]-2-methylbenzamide] the IC50 was 1.5 nM. Work on `CCNC(=O)c1ccc(-c2cnc3c(NCCN4CCOCC4)cc(Oc4ccccc4)nn23)cc1C` [Example 593, N-ethyl-2-methyl-4-(8-{[2-(morpholin-4-yl)ethyl]amino}-6-phenoxyimidazo[1,2-b]pyridazin-3-yl)benzamide] yielded an IC50 of 9 nM. With `CCNC(=O)c1ccc(-c2cnc3c(NCC4CCOCC4)cc(Oc4ccc(F)c(F)c4)nn23)cc1C` [Example 594, 4-{6-(3,4-difluorophenoxy)-8-[(tetrahydro-2H-pyran-4-ylmethyl)amino]imidazo[1,2-b]pyridazin-3-yl}-N-ethyl-2-methylbenzamide] the IC50 was < 10 nM. `CCNC(=O)c1ccc(-c2cnc3c(NCC4CCOCC4)cc(Oc4ccccc4C)nn23)cc1C` [Example 596, N-ethyl-2-methyl-4-{6-(2-methylphenoxy)-8-[(tetrahydro-2H-pyran-4-ylmethyl)a-mino]imidazo[1,2-b]pyridazin-3-yl}benzamide] showed an IC50 of 1.1 nM. `CCNC(=O)c1ccc(-c2cnc3c(NCC4CCOCC4)cc(Oc4ccc(OC)cc4)nn23)cc1C` [Example 597, N-ethyl-4-{6-(4-methoxyphenoxy)-8-[(tetrahydro-2H-pyran-4-ylmethyl)a-mino]imidazo[1,2-b]pyridazin-3-yl}-2-methylbenzamide] gave an IC50 of 1.1 nM. In the case of `CCNC(=O)c1ccc(-c2cnc3c(NCC4CCOCC4)cc(Oc4ccc(OC)cc4F)nn23)cc1C` [Example 598, N-ethyl-4-{6-(2-fluoro-4-methoxyphenoxy)-8-[(tetrahydro-2H-pyran-4-ylmethyl)a-mino]imidazo[1,2-b]pyridazin-3-yl}-2-methylbenzamide], the IC50 is reported as < 1 nM. With `CCNC(=O)c1ccc(-c2cnc3c(NCC4CCOCC4)cc(Oc4cc(F)ccc4C)nn23)cc1C` [Example 599, N-ethyl-4-{6-(5-fluoro-2-methylphenoxy)-8-[(tetrahydro-2H-pyran-4-ylmethyl)a-mino]imidazo[1,2-b]pyridazin-3-yl}-2-methylbenzamide] the IC50 was 1 nM. `CCNC(=O)c1ccc(-c2cnc3c(NCC4CCOCC4)cc(Oc4ccc(OC)c(F)c4)nn23)cc1C` [Example 600, N-ethyl-4-{6-(3-fluoro-4-methoxyphenoxy)-8-[(tetrahydro-2H-pyran-4-ylmethyl)a-mino]imidazo[1,2-b]pyridazin-3-yl}-2-methylbenzamide] was tested, and the IC50 was < 1 nM. For `CCNC(=O)c1ccc(-c2cnc3c(NCCC(F)(F)F)cc(Oc4ccccc4C)nn23)cc1C` [Example 601, N-ethyl-2-methyl-4-{6-(2-methylphenoxy)-8-[(3,3,3-trifluoropropyl)a-mino]imidazo[1,2-b]pyridazin-3-yl}benzamide], the IC50 was < 1 nM. `CCNC(=O)c1ccc(-c2cnc3c(NCCC(F)(F)F)cc(Oc4ccc(OC)cc4F)nn23)cc1C` [Example 602, N-ethyl-4-{6-(2-fluoro-4-methoxyphenoxy)-8-[(3,3,3-trifluoropropyl)a-mino]imidazo[1,2-b]pyridazin-3-yl}-2-methylbenzamide] was tested, and the IC50 was < 1 nM. For `CCNC(=O)c1ccc(-c2cnc3c(NCCC(F)(F)F)cc(Oc4cc(F)ccc4C)nn23)cc1C` [Example 603, N-ethyl-4-{6-(5-fluoro-2-methylphenoxy)-8-[(3,3,3-trifluoropropyl)a-mino]imidazo[1,2-b]pyridazin-3-yl}-2-methylbenzamide], the IC50 was < 1 nM. With `CCNC(=O)c1ccc(-c2cnc3c(NCCC(F)(F)F)cc(Oc4ccc(OC)c(F)c4)nn23)cc1C` [Example 604, N-ethyl-4-{6-(3-fluoro-4-methoxyphenoxy)-8-[(3,3,3-trifluoropropyl)a-mino]imidazo[1,2-b]pyridazin-3-yl}-2-methylbenzamide] the IC50 was < 1 nM. For `CCNC(=O)c1ccc(-c2cnc3c(NCC(F)F)cc(Oc4ccc(OC)cc4F)nn23)cc1C` [Example 605, 4-{8-[(2,2-difluoroethyl)amino]-6-(2-fluoro-4-methoxyphen-oxy)imidazo[1,2-b]pyridazin-3-yl}-N-ethyl-2-methylbenzamide], the IC50 was 1.2 nM. Work on `CCNC(=O)c1ccc(-c2cnc3c(NCCOC)cc(Oc4ccc(F)c(F)c4)nn23)cc1C` [Example 607, 4-{6-(3,4-difluorophenoxy)-8-[(2-methoxyethyl)a-mino]imidazo[1,2-b]pyridazin-3-yl}-N-ethyl-2-methylbenzamide] yielded an IC50 of 3.7 nM. For `CCNC(=O)c1ccc(-c2cnc3c(NCCOC)cc(Oc4ccc(OC)cc4F)nn23)cc1C` [Example 608, N-ethyl-4-{6-(2-fluoro-4-methoxyphenoxy)-8-[(2-methoxyethyl)a-mino]imidazo[1,2-b]pyridazin-3-yl}-2-methylbenzamide], the IC50 was 3.9 nM. With `CCNC(=O)c1ccc(-c2cnc3c(NCCOC)cc(Oc4cc(F)ccc4C)nn23)cc1C` [Example 609, N-ethyl-4-{6-(5-fluoro-2-methylphenoxy)-8-[(2-methoxyethyl)a-mino]imidazo[1,2-b]pyridazin-3-yl}-2-methylbenzamide] the IC50 was 2.9 nM. For `CCNC(=O)c1ccc(-c2cnc3c(NCCOC)cc(Oc4ccc(OC)c(F)c4)nn23)cc1C` [Example 610, N-ethyl-4-{6-(3-fluoro-4-methoxyphenoxy)-8-[(2-methoxyethyl)a-mino]imidazo[1,2-b]pyridazin-3-yl}-2-methylbenzamide], the IC50 was < 1 nM.
